Patent US12023319B2, “Carboxylic acid aromatic amides” (priority 2016, dated 2024)

Experiments:
Male Sprague Dawley rats = assay: Rat CFA in vivo model (mechanical hyperalgesia, paw withdrawal threshold); conditions: 2 hours post-compound
Method: Male Sprague Dawley rats were used. Mechanical hyperalgesia was induced by injecting 25 μL of Complete Freund's Adjuvant (CFA) into the plantar surface of one hind paw. Mechanical hyperalgesia was measured using the Pressure Application Measurement apparatus (Ugo Basile, Gemonio, Italy). Briefly, a linearly increasing pressure was applied to an area of ˜50 mm^2 of the plantar side of the hind paw until a behavioural response (paw withdrawal) was observed or until the pressure reached 1000 gf. The pressure at which the behavioural response occurred was recorded as the “Paw Withdrawal Threshold” (PWT). Both CFA-injected and contralateral PWTs were determined for each rat, in each treatment group and at each time point of the studies. The Compound Examples were administered orally in a vehicle of dimethylsulfoxide (DMSO), Polyethylenglycol (PEG) and 2-hydroxypropyl-beta-cyclodextrin (HPCD) (v/v/v=3:20:77). Rats received a first dose of […] of Compound Example per kg body weight 1 hour before CFA injection and a second dose 24 hours after the CFA injection. Mechanical hyperalgesia testing was performed approximately 2 hours before CFA injection, then 2 and 4 hours after the second dose of Compound Example (i.e. 26 and 28 hours after CFA treatment). Data were expressed as the mean±S.D. Area Under the Curve (AUC) of PWTs (defined in table 3 as “AUC of Paw withdrawal threshold (AUC 0-4 hours) post-vehicle” with respect to vehicle group or “AUC of Paw withdrawal threshold (AUC 0-4 hours) post-drug” with respect to Compound Example). Data were analysed by performing a one-way ANOVA followed by a Dunnett's post hoc test. For p values less than 0.05 the results were deemed to be statistically significant.

male Lewis rats = assay: In vivo adjuvant-induced arthritis (AIA) model; design: species or system rat
Text: 10. In Vivo Adjuvant-Induced Arthritis (AIA) Model
The AIA model is characterized by a rapid onset and progression to polyarticular inflammation. Following the injection of CFA, signs of arthritis usually develop between day 10 and day 14. Typically, the disease is severe and leads to permanent joint malformations, including ankylosis. Joint swelling, lymphocyte infiltration, and cartilage degradation are shared features with human autoimmune arthritis.
To determine the anti-inflammatory activity of the Compound Examples, they were examined for their in vivo efficacy in an arthritis model. For this purpose, male Lewis rats (about 100 to 125 g, Charles River Laboratories, Germany) were each administered 100 μl of a complete Freund's adjuvant (CFA) solution (M. tuberculosis H37Ra [Difo Lab, Cat. No. 231141] dissolved in Incomplete Freund's adjuvant [Difco Lab, Cat. No. 263910]) into the tailhead subcutaneously on day 0. There were n=8 rats in each group. Both, a healthy control group and a disease control group treated with the vehicle only were included in the study. Each control group was given oral (p.o. or PO) treatment only with the vehicle (5% DMSO/95% PBS) of the Compound Examples. The treatment with different dosages of the Compound Examples dissolved in the vehicle was conducted in a preventative manner, i.e. starting from day 0 and continued to day 20, the end of the study, by daily oral administration. On day 0, the starting condition of the animals was determined in terms of the disease activity scores (rating of the severity of arthritis based on a points system). Here, points were awarded according to the extent of joint inflammation from 0 to 4 for the presence of an erythema including joint swelling (0=none; 1=slight; 2=moderate; 3=distinct; 4=severe) for both hind paws and were summed up to a single value. […] In addition, the extent of joint swelling was detected by measuring the ankles of hind paws sagittal×transversal [in mm^2] using an automated caliper (Bayer AG, Germany). Next to this, the grip strength, as a measure for hyperalgesia, using an automated grip strength test meter (IITC Life Science Inc., USA) was evaluated.
Statistical analysis of obtained results for all parameters were done with one way Anova (ANOVA; Analysis of variance) and the comparison to the control group via multiple reference analysis (Dunnett-test).

[1] = test system: female Sprague Daley rats; assay: Isovolumetric bladder contraction model (rat); assay type: in vivo; conditions: single administration 1 mg/kg & 15 mg/kg, compared to vehicle
Text: 11. Isovolumetric Bladder Contraction Model (Rat) The aim of this study was to test the efficacy of Compound Examples on bladder function, in particularly on contraction frequency/intercontraction interval and contraction magnitude/contraction amplitude. The experimental setup for performing the isovolumetric bladder measurements was adapted to a previous descripted protocol (Yoshiyama M, de Groat W C. Am J Physiol Regul Integr Comp Physiol 280: […]-[…], 2001). Strong presence and target induction of BDKRB1 in comparison to BDKRB2 has been verified by gene expression analysis in bladders removed from rats after performance of the isovolumetric bladder contraction model in contrast to bladders of naïve, untreated rats. Immunohistochemistry confirmed the presence of BDKRB1 in bladders of rats after contraction, too. […] At least five cycles of isovolumetric bladder contractions were recorded before the Compound Examples or vehicle alone (PEG400/Water (50/50(v/v))) were administered via the catheter in the Vena jugularis at different dosages. About 2 minutes after compound administration the next nine contraction cycles were recorded. The change in contraction amplitude and intercontraction interval of the recorded bladder pressure and bladder contractions was calculated by comparing the means before and after compound administration using GraphPad Prism 7 program.

For `O=C(O)c1cc(NC(=O)C2(c3ccc(C(F)(F)F)cc3F)CC2)ccc1-c1cnn(C2CCC2)c1` [Example 3, 2-(1-Cyclobutyl-1H-pyrazol-4-yl)-5-[({1-[2-fluoro-4-(trifluoromethyl)phenyl]cyclopropyl}carbonyl)amino]benzoic acid], the “Paw withdrawal threshold 2 hours post-compound” value (Male Sprague Dawley rats; 0.75 mg/kg p.o.) was 659 ± 20 gf (ns), the “Paw withdrawal threshold 2 hours post-compound” value (Male Sprague Dawley rats; 3 mg/kg p.o.) was 782 ± 50 gf (****) and the “Paw withdrawal threshold 2 hours post-compound” value (Male Sprague Dawley rats; 15 mg/kg p.o.) was 812 ± 44 gf (****). For the same molecule, the “Paw withdrawal threshold 2 hours post-compound” value (Male Sprague Dawley rats; 60 mg/kg p.o.) was 885 ± 30 gf (****), the “dose-dependency in the adjuvant-induced arthritis (AIA) model” value (male Lewis rats; 60, 15 or 3 mg/kg QD p.o., day 0 to day 20) was “clear dose-dependency” and the “severity of rat AIA” value (male Lewis rats; oral treatment with 60 mg/kg once daily) was “significantly inhibited”. The disease activity score (male Lewis rats; rat AIA model, oral once daily, FIG. 14A) was “reduction”, the “extent of joint swelling” value (male Lewis rats; rat AIA model, oral once daily, FIG. 14B) was “reduction” and the “grip strength (hyperalgesia)” value (male Lewis rats; rat AIA model, oral once daily, FIG. 15) was “increase”. The “intercontraction interval (ICI)” value [1] was “significant efficacy on prolonging” and the “maximal pressure of bladder contractions” value [1] was “remained unchanged”.
